Laboratory results taken from ChEMBL document CHEMBL5579808, “Development of 1,5-diarylpyrazoles as EGFR/JNK-2 dual inhibitors: design, synthesis, moleecular docking, and bioactivity evaluation” (Bioorg Med Chem Lett, 2024).
Active and inactive are the calls of the source. The calls are words filed in the database; no cut-off is given here.

Experiments:
HeLa [1] = assay: Growth inhibition of human HeLa cells at 100 uM by WST-8 assay relative to control; assay type: functional; settings: read-out: GI
DLD-1 [2] = assay: Growth inhibition of human DLD-1 cells at 100 uM by WST-8 assay relative to control; assay type: functional; settings: read-out: GI
K562 [3] = assay: Growth inhibition of human K562 cells at 100 uM by WST-8 assay relative to control; assay type: functional; settings: read-out: GI
[4] = Growth inhibition of human SUIT-2 cells at 100 uM by WST-8 assay relative to control; assay type: functional; settings: read-out: GI
HepG2 [5] = assay: Growth inhibition of human HepG2 cells at 100 uM by WST-8 assay relative to control; assay type: functional; settings: read-out: GI
HeLa [6] = assay: Antiproliferative activity against human HeLa cells by WST-8 assay; assay type: functional, cell-based
K562 [7] = assay: Antiproliferative activity against human K562 cells by WST-8 assay; assay type: functional, cell-based
HepG2 [8] = assay: Antiproliferative activity against human HepG2 cells by WST-8 assay; assay type: functional, cell-based
DLD-1 [9] = assay: Antiproliferative activity against human DLD-1 cells by WST-8 assay; assay type: functional, cell-based
[10] = Antiproliferative activity against human SUIT-2 cells by WST-8 assay; assay type: functional, cell-based
[11] = target: Epidermal growth factor receptor (Mus musculus, UniProt Q01279); assay: Inhibition of recombinant mouse EGFR by ELISA
Sequence of Epidermal growth factor receptor (Q01279 whole entry): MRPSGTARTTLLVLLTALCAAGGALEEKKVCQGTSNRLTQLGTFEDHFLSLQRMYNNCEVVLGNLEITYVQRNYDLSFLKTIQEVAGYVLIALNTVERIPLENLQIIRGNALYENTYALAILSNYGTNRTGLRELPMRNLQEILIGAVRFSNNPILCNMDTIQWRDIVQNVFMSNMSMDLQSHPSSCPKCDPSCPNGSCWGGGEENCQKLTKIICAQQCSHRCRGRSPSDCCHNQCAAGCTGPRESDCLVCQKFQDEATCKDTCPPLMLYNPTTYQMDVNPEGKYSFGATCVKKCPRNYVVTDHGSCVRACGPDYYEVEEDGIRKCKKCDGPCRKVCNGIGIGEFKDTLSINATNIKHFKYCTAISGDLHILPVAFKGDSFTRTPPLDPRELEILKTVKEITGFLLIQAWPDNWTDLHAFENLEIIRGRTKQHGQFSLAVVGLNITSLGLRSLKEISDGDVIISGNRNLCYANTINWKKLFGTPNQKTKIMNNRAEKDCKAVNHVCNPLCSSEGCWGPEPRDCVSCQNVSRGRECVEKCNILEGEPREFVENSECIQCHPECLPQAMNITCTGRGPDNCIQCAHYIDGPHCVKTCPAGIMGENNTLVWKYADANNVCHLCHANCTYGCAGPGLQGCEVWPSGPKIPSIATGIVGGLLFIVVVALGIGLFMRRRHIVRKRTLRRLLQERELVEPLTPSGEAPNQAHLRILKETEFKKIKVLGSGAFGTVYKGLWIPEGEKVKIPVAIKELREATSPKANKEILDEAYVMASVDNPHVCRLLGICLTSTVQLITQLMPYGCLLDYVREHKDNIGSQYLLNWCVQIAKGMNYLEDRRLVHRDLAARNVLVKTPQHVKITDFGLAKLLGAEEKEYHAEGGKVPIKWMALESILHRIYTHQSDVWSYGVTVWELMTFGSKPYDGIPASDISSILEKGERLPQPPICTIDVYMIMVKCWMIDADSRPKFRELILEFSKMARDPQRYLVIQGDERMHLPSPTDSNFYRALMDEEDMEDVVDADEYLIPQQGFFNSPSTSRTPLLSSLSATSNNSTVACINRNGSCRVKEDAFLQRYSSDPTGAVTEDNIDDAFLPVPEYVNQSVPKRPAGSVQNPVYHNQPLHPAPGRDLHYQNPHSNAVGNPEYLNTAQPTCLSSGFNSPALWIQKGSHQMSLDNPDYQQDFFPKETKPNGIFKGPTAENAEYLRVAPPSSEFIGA

[12] = target: Mitogen-activated protein kinase 9 (Homo sapiens, UniProt P45984); assay: Inhibition of JNK2 (unknown origin) incubated for 90 mins by ELISA
HeLa [13] = assay: Induction of cell cycle arrest at G1 phase in human HeLa cells at IC50 incubated for 24 hrs by PI staining based flow cytometry (reference value: 68 %); assay type: functional
HeLa [14] = assay: Induction of cell cycle arrest at G1 phase in human HeLa cells at IC50 incubated for 48 hrs by PI staining based flow cytometry (reference value: 68 %); assay type: functional
HeLa [15] = assay: Induction of cell cycle arrest at S phase in human HeLa cells at IC50 incubated for 24 hrs by PI staining based flow cytometry (reference value: 8 %); assay type: functional
HeLa [16] = assay: Induction of cell cycle arrest at S phase in human HeLa cells at IC50 incubated for 48 hrs by PI staining based flow cytometry (reference value: 8 %); assay type: functional
HeLa [17] = assay: Induction of cell cycle arrest at G2 phase in human HeLa cells at IC50 incubated for 24 hrs by PI staining based flow cytometry (reference value: 7 %); assay type: functional
HeLa [18] = assay: Induction of cell cycle arrest at G2 phase in human HeLa cells at IC50 incubated for 48 hrs by PI staining based flow cytometry (reference value: 7 %); assay type: functional
HeLa [19] = assay: Induction of apoptosis in human HeLa cells assessed as total cells at 2 times IC50 incubated for 24 hrs by Annexin V-FITC/PI staining based flow cytometry (reference value: 1.8 %); assay type: functional
HeLa [20] = assay: Induction of apoptosis in human HeLa cells assessed as early apoptotic cells at 2 times IC50 incubated for 24 hrs by Annexin V-FITC/PI staining based flow cytometry (reference value: 0 %); assay type: functional
HeLa [21] = assay: Induction of apoptosis in human HeLa cells assessed as late apoptotic cells at 2 times IC50 incubated for 24 hrs by Annexin V-FITC/PI staining based flow cytometry (reference value: 0 %); assay type: functional
HeLa [22] = assay: Induction of apoptosis in human HeLa cells assessed as necrotic cells at 2 times IC50 incubated for 24 hrs by Annexin V-FITC/PI staining based flow cytometry (reference value: 1.8 %); assay type: functional
HeLa [23] = assay: Induction of apoptosis in human HeLa cells assessed as total cells at half of IC50 incubated for 24 hrs by Annexin V-FITC/PI staining based flow cytometry (reference value: 1.8 %); assay type: functional
HeLa [24] = assay: Induction of apoptosis in human HeLa cells assessed as early apoptotic cells at half of IC50 incubated for 24 hrs by Annexin V-FITC/PI staining based flow cytometry (reference value: 0 %); assay type: functional
HeLa [25] = assay: Induction of apoptosis in human HeLa cells assessed as late apoptotic cells at half of IC50 incubated for 24 hrs by Annexin V-FITC/PI staining based flow cytometry (reference value: 0 %); assay type: functional
HeLa [26] = assay: Induction of apoptosis in human HeLa cells assessed as necrotic cells at half of IC50 incubated for 24 hrs by Annexin V-FITC/PI staining based flow cytometry (reference value: 1.8 %); assay type: functional

| IC50 (HeLa [6]) | IC50 (K562 [7]) | IC50 (HepG2 [8]) | IC50 (DLD-1 [9]) | IC50 [11] | Structure (SMILES) | inhibition of growth at 100 µM (HeLa [1]) | inhibition of growth at 100 µM (DLD-1 [2]) | inhibition of growth at 100 µM (K562 [3]) | inhibition of growth at 100 µM [4] | inhibition of growth at 100 µM (HepG2 [5]) | IC50 [10] | further results |
| --- | --- | --- | --- | --- | --- | --- | --- | --- | --- | --- | --- | --- |
| – | – | – | – | – | COc1cc(C=O)ccc1OC(=O)c1cc(-c2ccc(Cl)cc2)n(-c2ccccc2)n1 | 51% | 74% | 66% | 92% | 20% | – | – |
| 27 µM | 17.2 µM | 38 µM | – | – | COc1cc(C=O)ccc1OC(=O)c1cc(-c2ccccc2)n(-c2ccc(S(N)(=O)=O)cc2)n1 | 79% | 100% | 82% | 95% | 84% | – | – |
| – | 15.4 µM | – | 29.8 µM | 2.7 µM | NS(=O)(=O)c1ccc(NC(=O)c2cc(-c3ccc(Cl)cc3)n(-c3ccccc3)n2)cc1 | 0% | 94% | 86% | 99% | 27% | 49.7 µM | IC50 [12]: 3 µM |
| – | – | – | 33.1 µM | – | CS(=O)(=O)c1ccc(NC(=O)c2cc(-c3ccccc3)n(-c3ccccc3)n2)cc1 | 28% | 81% | 32% | 86% | 41% | – | – |
| – | – | – | – | – | COc1cc(C=O)ccc1OC(=O)c1cc(-c2ccccc2)n(-c2ccccc2)n1 | 31% | 71% | 52% | 91% | 60% | – | – |
| 15 µM | 14.8 µM | 8.9 µM | – | – | COc1cc(C=O)ccc1OC(=O)c1cc(-c2ccc(C)cc2)n(-c2ccccc2)n1 | 84% | 70% | 79% | 89% | 50% | – | Activity (HeLa [13]): 64%; Activity (HeLa [14]): 59%; Activity (HeLa [15]): 8%; Activity (HeLa [16]): 5%; Activity (HeLa [17]): 21%; Activity (HeLa [18]): 23%; Activity (HeLa [19]): 86%; Activity (HeLa [20]): 5.9%; Activity (HeLa [21]): 48%; Activity (HeLa [22]): 33% |
| 14 µM | 7.6 µM | 2.7 µM | 17 µM | 50 µM | COc1cc(C=O)ccc1OC(=O)c1cc(-c2ccc(C)cc2)n(-c2ccc(S(N)(=O)=O)cc2)n1 | 95% | 100% | 95% | 87% | 101% | 17 µM | Activity (HeLa [13]): 4%; Activity (HeLa [15]): 83%; Activity (HeLa [17]): 7%; Activity (HeLa [23]): 25%; Activity (HeLa [24]): 0.4%; Activity (HeLa [25]): 19%; Activity (HeLa [26]): 5.9%; IC50 [12]: 2 µM |
| 0.1 µM | 13.3 µM | 22 µM | 30 µM | – | COc1cccc2c1C(=O)c1c(O)c3c(c(O)c1C2=O)C[C@@](O)(C(C)=O)C[C@@H]3O[C@H]1C[C@H](N)[C@H](O)[C@H](C)O1 [DAUNORUBICIN] | 100% | 84.2% | 100% | 92% | 100% | 9 µM | – |
| – | – | – | – | – | COc1ccc(-c2cc(C(=O)Oc3ccc(C=O)cc3OC)nn2-c2ccccc2)cc1 | 30% | 61% | 61% | 91% | 11% | – | – |
| – | – | – | – | – | COc1ccc(-c2cc(C(=O)Oc3ccc(C=O)cc3OC)nn2-c2ccccc2)cc1OC | 0% | 96% | 58% | 86% | 74% | – | – |
| – | – | 5.9 µM | – | – | NS(=O)(=O)c1ccc(NC(=O)c2cc(-c3ccccc3)n(-c3ccccc3)n2)cc1 | 12% | 64% | 89% | 91% | 107% | 18 µM | – |
| – | – | – | – | – | COc1ccc(-c2cc(C(=O)Nc3ccc(S(C)(=O)=O)cc3)nn2-c2ccccc2)cc1 | 76% | 64% | 41% | 90% | 62% | 41 µM | – |
| 16.7 µM | – | 3.6 µM | 16.1 µM | > 1000 µM | Cc1ccc(-c2cc(C(=O)Nc3ccc(S(N)(=O)=O)cc3)nn2-c2ccccc2)cc1 | 0% | 99% | 65% | 96% | 101% | 13 µM | inhibition [12]: inactive |
| – | – | – | – | – | COc1ccc(-c2cc(C(=O)Nc3ccc(S(C)(=O)=O)cc3)nn2-c2ccccc2)cc1OC | 19% | 74% | 62% | 89% | 37% | – | – |
| 63 µM | – | 10 µM | 22 µM | 110 µM | Cc1ccc(-c2cc(C(=O)Nc3ccc(S(C)(=O)=O)cc3)nn2-c2ccccc2)cc1 | 78% | 87% | 58% | 87% | 94% | – | IC50 [12]: > 200 µM |
| 31 µM | 14.9 µM | 7.8 µM | 5.6 µM | > 1000 µM | COc1ccc(-c2cc(C(=O)Oc3ccc(C=O)cc3OC)nn2-c2ccc(S(N)(=O)=O)cc2)cc1 | 78% | 104% | 85% | 95% | 82% | 5 µM | IC50 [12]: 0.9 µM |
| – | 17.1 µM | – | 5 µM | – | COc1cc(C=O)ccc1OC(=O)c1cc(-c2ccc(Cl)cc2)n(-c2ccc(S(N)(=O)=O)cc2)n1 | 51% | 97% | 85% | 94% | 54% | 49.8 µM | – |
| 16 µM | 21.8 µM | – | 5.7 µM | 1.7 µM | CS(=O)(=O)c1ccc(NC(=O)c2cc(-c3ccc(Cl)cc3)n(-c3ccccc3)n2)cc1 | 101% | 98% | 88% | 94% | 50% | 25 µM | Activity (HeLa [13]): 6%; Activity (HeLa [15]): 82%; Activity (HeLa [17]): 6%; Activity (HeLa [19]): 94%; Activity (HeLa [20]): 1.4%; Activity (HeLa [21]): 75%; Activity (HeLa [22]): 18%; IC50 [12]: > 200 µM |
| – | – | – | – | – | COc1ccc(-c2cc(C(=O)Nc3ccc(S(N)(=O)=O)cc3)nn2-c2ccccc2)cc1 | 74% | 69% | 26% | 78% | 26% | – | – |
| – | – | – | – | – | COc1ccc(-c2cc(C(=O)Oc3ccc(C=O)cc3OC)nn2-c2ccc(S(N)(=O)=O)cc2)cc1OC | 70% | 75% | 77% | 66% | 92% | – | – |
| – | – | – | – | – | COc1ccc(-c2cc(C(=O)Nc3ccc(S(N)(=O)=O)cc3)nn2-c2ccccc2)cc1OC | 51% | 56% | 58% | 91% | 90% | – | – |

| Structure (SMILES) | IC50 (HeLa [6]) | IC50 (K562 [7]) | IC50 (HepG2 [8]) | IC50 (DLD-1 [9]) | IC50 [11] | inhibition of growth at 100 µM (HeLa [1]) | inhibition of growth at 100 µM (DLD-1 [2]) | inhibition of growth at 100 µM (K562 [3]) | inhibition of growth at 100 µM [4] | inhibition of growth at 100 µM (HepG2 [5]) | IC50 [10] | further results |
| --- | --- | --- | --- | --- | --- | --- | --- | --- | --- | --- | --- | --- |
| CNC(=O)c1cc(Oc2ccc(NC(=O)Nc3ccc(Cl)c(C(F)(F)F)c3)cc2)ccn1 [SORAFENIB] | – | – | – | – | 3.5 µM | – | – | – | – | – | – | – |
